The results in this text go back to patent US20120142701A1 (priority 2010, published 2012).

For one experiment, the system named is A/WSN/33 virus. The experiment in a line: multicycle growth assay, viral titres by plaques assay in MDCK cells. In kind it is cell-based, influenza A H1N1 (A/WSN/33). The following applies: MDCK cells infected with A/WSN/33 at 0.001 MOI. As for the experimental part: FIG. 3 is a plot of the antiviral activity of an aggregation-inducing agent nucleozin in multicycle growth assays. Madin-Darby Canine Kidney (MDCK) cells were infected with A/WSN/33 virus at 0.001 MOI in the presence or absence of nucleozin (0.1 or 1 μM). Viral titres were determined by plaques assay at the time indicated.

For experiment [1], the target named is T1, nucleoproteins (Influenza A virus, UniProt P03466). The experiment in a line: cell-based aggregation assay (immunofluorescence microscopy). From the text: A cell-based method for identifying compounds that promote aggregation includes:
a.) treating cells with one or more test compounds for a period of time;
b.) adding a fixing solution to stop protein translation;
c.) treating the cells with a fluorescent antibody that binds specifically to a protein, glycoprotein, or protein-nucleic acid complex;
d.) determining the presence or absence of aggregation,
wherein if aggregation is present in (d), the test compound is identified as a compound that may promote aggregation.
1. 25 μl of culture medium is added into each well of a 384-well plate followed by the addition of a test compound from a chemical library in each well. Then 25 μl of cells (6×10^3 cells/well) with undesirable physiological conditions in DMEM with 10% fetal bovine serum are seeded into each assay well. Plates are incubated at 37° C. in a 5% CO2 humid atmosphere for 1 day.
2. The supernatant is removed from each well, and washed with 50 μl of phosphate-buffered saline (PBS).
3. The PBS is aspirated off and 50 μl of a cold (4° C.) fixing solution of 3.65% formaldehyde in PBS was added to each well. The plate was incubated for 1 h at 4° C.
4. The fixing solution was aspirated off and 50 μl of 0.1% Nonidet P-40 solution in PBS was added to each well. […]
8. The aggregation of proteins, glycoproteins, or protein-nucleic acid complexes is detected by immunofluorescence microscopy.

For experiment [2], the target named is T1, nucleoproteins. The experiment in a line: cell-free aggregation assay (aggregation plate reader). It is filed as biochemical. As for the experimental part: A cell-free method for identifying compounds that promote aggregation of proteins, glycoproteins, or protein-nucleic acid complexes includes:
a.) combining a mixture of bovine serum albumin and one or more proteins, glycoproteins, or protein-nucleic acid complexes;
b.) adding the mixture of (a) to a multi-well plate;
c.) transferring a test compound to one or more wells of the multi-well plate;
d.) incubating the plate of (c); and
e.) determining the presence of aggregation,
wherein if aggregation is present in (e), the test compound is identified as a compound that may promote aggregation.
1. A mixture of 1 μM proteins, glycoproteins, or protein-nucleic acid complexes in 40 μg/ml bovine serum albumin is prepared.
2. A portion (20 μl) of the reaction mixture is added to each well of a 384-well mircotitre plate using automated liquid dispenser.
3. Chemicals from a chemical library are assayed by transferring approximately 100 nl to each assay well by a 384 solid pin array.
4. The plates are incubated at 37° C. for 6 hours and the extent of chemical induced aggregation is recorded by an aggregation plate reader.

The subject of experiment [3] is A/Vietnam/1194/04 H5N1 virus. In kind it is in vivo, BALB/c female mice.
The test system of experiment [4] is nucleoprotein. It is filed as biochemical.
Experiment [5] has as its target nucleoprotein (Influenza A virus, UniProt P15682). The experiment in a line: cellular immunofluorescence microscopy in infected A549 cells. It is filed as cell-based, influenza A/WSN/33 virus.

Sequence of nucleoprotein (Influenza A virus, UniProt P15682) (P15682 whole entry): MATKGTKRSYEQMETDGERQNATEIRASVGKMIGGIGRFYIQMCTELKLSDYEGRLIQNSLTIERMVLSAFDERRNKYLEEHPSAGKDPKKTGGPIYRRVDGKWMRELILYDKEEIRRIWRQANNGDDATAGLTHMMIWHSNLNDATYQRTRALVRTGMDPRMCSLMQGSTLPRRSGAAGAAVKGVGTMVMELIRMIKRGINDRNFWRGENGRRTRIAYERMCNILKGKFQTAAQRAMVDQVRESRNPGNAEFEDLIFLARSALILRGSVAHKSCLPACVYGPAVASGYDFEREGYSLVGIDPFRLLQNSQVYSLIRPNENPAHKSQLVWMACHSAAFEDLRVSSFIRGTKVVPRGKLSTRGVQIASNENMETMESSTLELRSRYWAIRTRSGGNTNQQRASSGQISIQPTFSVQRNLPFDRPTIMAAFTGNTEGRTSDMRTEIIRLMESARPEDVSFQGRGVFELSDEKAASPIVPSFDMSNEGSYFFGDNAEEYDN
T1 sequence (P03466 whole entry): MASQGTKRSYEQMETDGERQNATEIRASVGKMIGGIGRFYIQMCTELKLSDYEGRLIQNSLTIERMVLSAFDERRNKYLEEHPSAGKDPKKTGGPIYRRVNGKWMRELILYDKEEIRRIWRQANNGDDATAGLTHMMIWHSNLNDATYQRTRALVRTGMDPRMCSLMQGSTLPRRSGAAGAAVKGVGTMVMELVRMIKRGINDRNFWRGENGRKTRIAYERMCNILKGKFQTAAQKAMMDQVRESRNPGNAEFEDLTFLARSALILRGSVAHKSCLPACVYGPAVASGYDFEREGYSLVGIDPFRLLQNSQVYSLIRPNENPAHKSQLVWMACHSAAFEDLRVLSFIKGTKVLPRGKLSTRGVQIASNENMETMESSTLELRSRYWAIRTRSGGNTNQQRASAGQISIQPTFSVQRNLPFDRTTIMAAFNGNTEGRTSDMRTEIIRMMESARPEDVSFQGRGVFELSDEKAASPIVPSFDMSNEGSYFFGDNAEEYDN

On to nucleozin, for which the “viral growth (viral titres)” value in the experiment with A/WSN/33 virus (nucleozin 0.1 μM) is reported as “suppressed viral growth”. The “virus production (viral titres)” value in the experiment with A/WSN/33 virus (nucleozin at 1 (unit cut off in the text)) is reported as “completely inhibited virus production”. Besides, the aggregation of nucleoproteins result at nucleoproteins [1] and at nucleoproteins [2] was “aggregation of nucleoproteins was observed” in each case. For the same substance, the “survival rate versus untreated controls” value in experiment [3] (mice after inoculation by influenza A virus H5N1 strain A/Vietnam/1194/04) is “significantly higher survival rate”. In addition, the “animals surviving for more than 21 days” value in experiment [3] (mice, two doses of nucleozin (250 nmole per dose) per day i.p. for 5 days, H5N1 A/Vietnam/1194/04 i.n.) was found to be 90%. For the same substance, the “amount of nucleoprotein running into the native gradient gel” value in the experiment with nucleoprotein [4] is on record as “reduces the amount of nucleoprotein running into the native gradient gel in a dose-dependent manner”. Moreover, the “nucleoprotein-RNA complex that runs into the 4-12% polyacrylamide gradient gel” value in the experiment with nucleoprotein [4] was “dose-dependent reduction”. The “nucleoprotein localisation at 3 hours post infection” value on nucleoprotein [5] (influenza A/WSN/33, 3 hours post infection) is ““halo” of dense nucleoprotein aggregates surrounding the perinuclear region in the cytoplasm”. The “nucleoprotein localisation at 24 hours after infection” value on nucleoprotein [5] (influenza A/WSN/33, 24 hours after infection) is listed as “nucleoprotein trapped in the cytoplasm was seen scattered randomly in host cells”. Besides, the “nucleoprotein accumulation in the nucleus” value at nucleoprotein [5] (influenza A/WSN/33 virus infection) is reported as “potent antagonist of nucleoprotein accumulation in the nucleus”.
